Here are results for eight compounds from patent publication US7064218B2, “Aromatic compounds and poly(oxyalkylene) containing aromatic compounds possessing antibacterial, antifungal or antitumor activity” (Genelabs Technologies, Inc., priority 2001, dated 2006).

Assay [1] deals with bacteria. Briefly: Minimum Inhibitory Concentration (MIC) assay, bacteria. It counts as cell-based. As to conditions: antibacterial; complete inhibition of visible growth. On the procedure: (§1) These assays are adapted from NCCLS protocols M7-A4 and M27-A (NCCLS vol 17:9 and vol 17:2) as modified by Sandven, S. Clin. Micro. (1999) 37:12, p. 3856–3859. MIC values for Aspergillus fumigatus were determined using NCCLS protocol M38-P.
(§2) All compounds were dissolved in 100% DMSO to a stock concentration of 10 mM and use fresh or stored at −80° C. Stock compounds were kept frozen until needed and used freshly with no more then one freeze-thaw cycle. When used for test purposes, compounds were diluted in the appropriate media depending on the organism being tested.
(§3) For yeast and aspergillus species, seven 1:2 serial dilutions of compound in appropriate media buffered with MOPS at pH 7.0 were prepared such that the final starting test compound concentrations were 50.0 uM for yeast and 50 uM aspergillus species. For bacteria, dilutions were made in growth media used for the particular bacteria being tested.
Inoculums are made in the same manner as yeast except all dilutions are made in normal saline, with a final dilution of 1:200 and an inoculum of 10 μL.

Assay [2] relates to yeast and aspergillus species. Briefly: Minimum Inhibitory Concentration (MIC) assay, yeast and filamentous fungi. It counts as cell-based, Candida albicans; Aspergillus fumigatus. As to conditions: antifungal; complete inhibition of visible growth, 48 h at 35 C. How it is done: as §1, §2, §3
Five well-separated colonies from a 24 hr Sabouraud Dextrose plate incubated at 35 C were picked and resuspended into 5.0 ml of normal saline. The O.D.530 was read and the culture was adjusted to 0.5 McFarland units with normal saline. A 1:2000 dilution was made with RPMI 1640 media buffered with MOPS at pH 7.0 and 100 μL of this inoculum preparation was added to an equal volume of test compound-containing media. 25 μL of the redox indicator Alamar Blue (Biosource International) was added to each well and the plates were incubated for 48 h at 35 C. Wells having yeast growth changed color from blue to pink.
Inoculums are made by incubating Aspergillus fumigatus for 7 days at 35 C on potato dextrose agar slants. Slants are then covered with 1.0 ml of 0.85% saline, one drop of Tween 20 is added and colonies are teased with a sterile transfer loop to create a suspension which is allowed to sit for 5 min so heavier particles can drop out. The upper suspension is separated and adjusted to an optical density of 0.09 to 0.11. The resulting suspension is diluted 1:50 which yields 2× the final inoculum needed. Micro dilution trays are prepared as with yeast and incubated for 48 h at 35 C. For our purposes the MIC is defined as the lowest compound concentration at which no visible growth is observed after 48 h.

Regarding `N=C(N)CNC(=O)c1cc(NC(=O)c2ccc(C(=O)Nc3cc(C(=O)NCC(=N)N)n(CC4CC4)c3)cc2)cn1CC1CC1` [Compound 284, N,N′-Bis-[5-(carbamimidoylmethylcarbamoyl)-1-cyclopropylmethyl-1H-pyrrol-3-yl]-terephthalamide], the minimal inhibitory concentration (MIC) in assay [1] and in assay [2] was less than 45.5 µM in each case.
Turning to `CCCCn1cc(NC(=O)c2ccc(C(=O)Nc3cc(C(=O)NCC(=N)N)n(CCCC)c3)cc2)cc1C(=O)NCC(=N)N` [Compound 287, N,N′-Bis-[1-butyl-5-(carbamimidoylmethyl-carbamoyl)-1H-pyrrol-3-yl]terephthalamide], the MIC in assay [1] and in assay [2] was less than 45.5 µM each time.
With `CCCCn1cc(NC(=O)c2ccc(C(=O)Nc3cc(C(=O)NCC(=N)NC)n(CCCC)c3)cc2)cc1C(=O)NCC(=N)NC` [Compound 289, N,N′-Bis-[1-butyl-5-(methylcarbamimidoylmethyl-carbamoyl)-1H-pyrrol-3-yl]terephthalamide], the MIC in assay [1] and in assay [2] was less than 45.5 µM in each case.
`CCCCn1cc(NC(=O)c2ccc(C(=O)Nc3cc(C(=O)NCC(=N)NCC)n(CCCC)c3)cc2)cc1C(=O)NCC(=N)NCC` [Compound 290, N,N′-Bis-[1-butyl-5-(ethylcarbamimidoylmethyl-carbamoyl)-1H-pyrrol-3-yl]terephthalamide]: the minimal inhibitory concentration (MIC) in assay [1] and in assay [2] was less than 45.5 µM in each case.
As for `N=C(N)CNC(=O)c1cc(NC(=O)c2ccc(C(=O)Nc3cc(C(=O)NCC(=N)N)n(CC4CC4)c3)nc2)cn1CC1CC1` [Compound 292, Pyridine-2,5-dicarboxylic acid bis{[5-(carbamimidoylmethyl-carbamoyl)-1-cyclopropylmethyl-1H-pyrrol-3-yl]-amide}], the minimum inhibitory concentration (MIC) in assay [1] and in assay [2] was less than 45.5 µM in each case.
In the case of `N=C(N)CNC(=O)c1cc(NC(=O)c2cnc(C(=O)Nc3cc(C(=O)NCC(=N)N)n(CC4CC4)c3)cn2)cn1CC1CC1` [Compound 293, Pyrazine-2,5-dicarboxylic acid bis-{[5-(carbamimidoylmethyl-carbamoyl)-1-cyclopropylmethyl-1H-pyrrol-3-yl]-amide}], the minimal inhibitory concentration (MIC) in assay [1] and in assay [2] was less than 45.5 µM in each case.
In the case of `N=C(N)CNC(=O)c1cc(NC(=O)C2=CC=C(C(=O)Nc3cc(C(=O)NCC(=N)N)n(CC4CC4)c3)CC2)cn1CC1CC1` [Compound 294, Cyclohexa-1,3-diene-1,4-dicarboxylic acid bis-{[5-(carbamimidoylmethyl-carbamoyl)-1-cyclopropylmethyl-1H-pyrrol-3-yl]-amide}], the minimum inhibitory concentration (MIC) in assay [1] and in assay [2] was less than 45.5 µM each time.
For the compound `N=C(N)CNC(=O)c1cc(NC(=O)c2cc(C(=O)Nc3cc(C(=O)NCC(=N)N)n(CC4CC4)c3)[nH]n2)cn1CC1CC1` [Compound 295, 1H-Pyrazole-3,5-dicarboxylic acid bis-{[5-(carbamimidoylmethyl-carbamoyl)-1-cyclopropylmethyl-1H-pyrrol-3-yl]-amide}], the MIC in assay [1] and in assay [2] was less than 45.5 µM each time.
